# Reference: patent publication US20240101572A1, “DIHYDROOXADIAZINONE COMPOUND AND PHARMACEUTICAL USE THEREOF” (Japan Tobacco Inc., priority 2022, published 2024)
# Like-named read-outs stand apart in the source and are kept apart here.
# How the values were obtained:
# full-length human PLD1 = full-length human PLD1 (Homo sapiens (Human), UniProt Q13393); assay: Evaluation of human PLD1 enzyme inhibitory activity (Amplex Red / choline oxidase fluorescence); assay type: biochemical
# Summary of the method: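 Fluorescence read-out couples choline to Amplex Red via choline oxidase and peroxidase after a 60 min room-temperature reaction. Enzyme: FLAG-tagged full-length human PLD1 from Expi293F cells, anti-FLAG purified; substrate diheptanoyl phosphatidylcholine; HEPES pH 7.5 assay buffer with 0.01% NP-40, 0.1% BSA, 5% DMSO final.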
# full-length human PLD2 = full-length human PLD2 (Homo sapiens (Human), UniProt O14939); assay: Evaluation of human PLD2 enzyme inhibitory activity (Amplex Red / choline oxidase fluorescence); assay type: biochemical
# Summary of the method: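 Released choline was read by Amplex Red fluorescence coupled to choline oxidase and HRP after a 60 min room-temperature reaction. Substrate was diheptanoyl phosphatidylcholine, added as a 6 mmol/L solution, and enzyme was FLAG-tagged full-length human PLD2 from Expi293F, added as a 6 nmol/L solution. Buffer was 50 mM HEPES pH 7.5 with 5% final DMSO.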
# [1] = full-length human PLD1 enzyme, read-out: PLD1 IC50
# [2] = full-length human PLD2 enzyme, read-out: PLD2 IC50
# Chain of full-length human PLD1 (Q13393 other isoform, or with tags, fused parts or gaps): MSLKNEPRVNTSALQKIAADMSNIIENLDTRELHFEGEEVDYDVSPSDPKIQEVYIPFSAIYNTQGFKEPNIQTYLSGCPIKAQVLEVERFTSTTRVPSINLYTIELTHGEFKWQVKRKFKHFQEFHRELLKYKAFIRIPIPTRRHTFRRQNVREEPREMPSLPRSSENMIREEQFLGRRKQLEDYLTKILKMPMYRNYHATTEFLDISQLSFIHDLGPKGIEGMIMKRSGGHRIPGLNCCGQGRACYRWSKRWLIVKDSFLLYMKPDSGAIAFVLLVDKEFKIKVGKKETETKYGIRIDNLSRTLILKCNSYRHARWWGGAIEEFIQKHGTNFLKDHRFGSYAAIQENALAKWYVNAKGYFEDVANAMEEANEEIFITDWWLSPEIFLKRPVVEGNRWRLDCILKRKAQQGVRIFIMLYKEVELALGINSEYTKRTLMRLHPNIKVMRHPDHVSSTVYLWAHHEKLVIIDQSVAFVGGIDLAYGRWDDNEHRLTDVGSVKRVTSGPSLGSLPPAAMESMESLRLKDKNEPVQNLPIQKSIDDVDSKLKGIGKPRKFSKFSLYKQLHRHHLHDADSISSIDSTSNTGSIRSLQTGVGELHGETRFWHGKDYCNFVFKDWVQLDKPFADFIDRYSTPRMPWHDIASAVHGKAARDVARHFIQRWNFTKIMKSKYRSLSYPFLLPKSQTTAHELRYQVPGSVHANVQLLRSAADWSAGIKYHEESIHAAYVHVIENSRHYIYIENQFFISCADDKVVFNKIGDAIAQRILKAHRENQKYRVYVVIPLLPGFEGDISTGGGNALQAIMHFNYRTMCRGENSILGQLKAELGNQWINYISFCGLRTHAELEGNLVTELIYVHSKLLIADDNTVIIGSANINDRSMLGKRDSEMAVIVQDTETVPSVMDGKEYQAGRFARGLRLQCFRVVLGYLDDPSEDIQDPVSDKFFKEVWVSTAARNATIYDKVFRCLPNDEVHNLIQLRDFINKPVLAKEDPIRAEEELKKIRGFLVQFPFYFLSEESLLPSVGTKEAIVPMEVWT
# Chain of full-length human PLD2 (O14939 whole entry): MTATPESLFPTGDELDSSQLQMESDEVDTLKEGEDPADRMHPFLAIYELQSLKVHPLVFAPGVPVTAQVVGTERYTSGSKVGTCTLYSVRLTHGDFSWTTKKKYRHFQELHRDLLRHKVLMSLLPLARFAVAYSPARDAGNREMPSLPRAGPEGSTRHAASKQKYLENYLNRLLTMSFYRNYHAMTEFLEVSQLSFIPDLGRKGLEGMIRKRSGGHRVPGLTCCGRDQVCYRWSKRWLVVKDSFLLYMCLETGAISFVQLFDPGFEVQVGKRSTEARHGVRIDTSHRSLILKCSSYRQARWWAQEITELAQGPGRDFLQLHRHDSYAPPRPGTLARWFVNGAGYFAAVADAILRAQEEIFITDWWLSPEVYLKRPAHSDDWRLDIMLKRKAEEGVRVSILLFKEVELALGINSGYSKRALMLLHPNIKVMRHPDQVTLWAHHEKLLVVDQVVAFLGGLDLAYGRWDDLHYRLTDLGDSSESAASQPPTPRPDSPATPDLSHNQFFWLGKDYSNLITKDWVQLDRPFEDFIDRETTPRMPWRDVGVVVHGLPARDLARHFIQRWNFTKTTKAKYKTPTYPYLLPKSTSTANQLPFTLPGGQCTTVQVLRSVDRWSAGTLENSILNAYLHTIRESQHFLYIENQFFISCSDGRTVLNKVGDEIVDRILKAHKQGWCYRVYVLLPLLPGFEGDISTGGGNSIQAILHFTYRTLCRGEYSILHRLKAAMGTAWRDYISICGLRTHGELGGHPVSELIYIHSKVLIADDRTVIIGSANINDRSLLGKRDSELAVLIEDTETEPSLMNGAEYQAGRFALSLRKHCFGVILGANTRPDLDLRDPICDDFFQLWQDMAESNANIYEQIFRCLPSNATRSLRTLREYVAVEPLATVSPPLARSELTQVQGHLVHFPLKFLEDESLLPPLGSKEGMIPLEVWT
SMILES,IC50 (full-length human PLD1; [1]) [nM],IC50 (full-length human PLD2; [2]) [nM],"IC50 (full-length human PLD1; column 1 of continuation tables 2-12 to 2-14, read-out: human PLD1 enzyme inhibitory activity IC50) [nM]","IC50 (full-length human PLD2; column 2 of continuation tables 2-12 to 2-14, read-out: human PLD2 enzyme inhibitory activity IC50) [nM]"
CNC(=O)C(=O)N[C@@H](C)C[C@H]1CC[C@]2(CC1)OC(=O)NN=C2c1ccccc1OC(F)(F)F [Example 105],27,41,–,–
CNC(=O)C(=O)N[C@@H](C)C[C@H]1CC[C@]2(CC1)OC(=O)NN=C2c1ccc(-c2ccccc2)cc1-c1ccccc1 [Example 73],23,15,–,–
C[C@@H](C[C@H]1CC[C@]2(CC1)OC(=O)NN=C2c1ccccc1OC(F)(F)F)NC(=O)c1cc(Cl)no1 [Example 111],17,21,–,–
Cc1cc(C(=O)N[C@@H](C)C[C@H]2CC[C@]3(CC2)OC(=O)NN=C3c2ccccc2Br)[nH]n1 [Example 27],14,13,–,–
Cc1cc(C(=O)NC[C@H](C)N2CCC3(CC2)OC(=O)NN=C3c2ccc(C#N)cc2Br)[nH]n1 [Example 335],126,< 10,–,–
C[C@@H](C[C@H]1CC[C@]2(CC1)OC(=O)NN=C2c1ccc(F)cc1Cl)NC(=O)C(=O)NC1CC1 [Example 70],28,20,–,–
CNC(=O)C(=O)N[C@@H](C)C[C@H]1CC[C@]2(CC1)OC(=O)NN=C2c1cnc(OCC(F)(F)F)cc1C [Example 170],19,< 10,–,–
CNC(=O)C(=O)N[C@@H](C)CN1CCC2(CC1)OC(=O)NN=C2c1cccn2nccc12 [Example 2-039],153,264,–,–
C[C@@H](CN1CCC2(CC1)OC(=O)NN=C2c1ccc(S(C)(=O)=O)cc1Cl)NC(=O)c1cc2cc(F)ccc2o1 [Example 116],43,37,–,–
Cc1cc(C(=O)N[C@@H](C)CN2CCC3(CC2)OC(=O)NN=C3c2cc(C#N)ccc2Cl)[nH]n1 [Example 2-007],28,< 10,–,–
CNC(=O)C(=O)N[C@@H](C)C[C@H]1CC[C@]2(CC1)OC(=O)NN=C2c1ccc(F)cc1OC [Example 54],20,< 10,–,–
COc1cc(C)c(C2=NNC(=O)O[C@]23CC[C@@H](C[C@H](C)NC(=O)c2cc(C)n[nH]2)CC3)cn1 [Example 160],26,17,–,–
CNC(=O)C(=O)N[C@@H](C)C[C@H]1CC[C@]2(CC1)OC(=O)NN=C2c1cnc(C2CC2)cc1Cl [Example 265],13,< 10,–,–
CNC(=O)C(=O)N[C@@H](C)C[C@H]1CC[C@]2(CC1)OC(=O)NN=C2c1ccc(F)cc1CCC(F)(F)F [Example 135],86,33,–,–
Cc1cc(C(=O)N[C@@H](C)C[C@H]2CC[C@]3(CC2)OC(=O)NN=C3c2ccc(C#N)cc2Br)[nH]n1 [Example 199],10,< 10,–,–
C[C@H](O)C(=O)N[C@@H](C)C[C@H]1CC[C@]2(CC1)OC(=O)NN=C2c1ccc(F)cc1Br [Example 29],999,1720,–,–
CNC(=O)C(=O)N[C@@H](C)C[C@]1(C#N)CC[C@@]2(CC1)OC(=O)NN=C2c1ccc(C#N)cc1Br [Example 2-065],21,< 10,–,–
CNC(=O)C(=O)N[C@@H](C)C[C@H]1CC[C@]2(CC1)OC(=O)NN=C2c1ccc(F)cc1C(F)(F)F [Example 56],26,17,–,–
CC(=O)N[C@@H](C)C[C@H]1CC[C@]2(CC1)OC(=O)NN=C2c1ccc(OC(F)F)cc1Br [Example 141],141,164,–,–
C[C@@H](CN1CCC2(CC1)OC(=O)NN=C2c1cc(C#N)ccc1Br)NC(=O)c1cc(F)c[nH]1 [Example 302],17,< 10,–,–
COc1cc(C)c(C2=NNC(=O)O[C@]23CC[C@@H](C[C@H](C)NC(=O)N2CCn4nncc4C2)CC3)cn1 [Example 235],35,13,–,–
CNC(=O)C(=O)NCC[C@H]1CC[C@]2(CC1)OC(=O)NN=C2c1ccc(F)cc1Br [Example 47],119,< 10,–,–
C[C@@H](CN1CCC2(CC1)OC(=O)NN=C2c1cc(C#N)ccc1Br)NC(=O)/C=C/C(F)(F)F [Example 2-003],38,12,–,–
"Cc1cc(C(=O)N[C@@H](C)C[C@]2(O)CC[C@]3(CC2)OC(=O)NN=C3c2ccc(F)cc2Br)[nH]n1 [Example 320, N—((S)-1-(cis-5-(2-bromo-4-fluorophenyl)-9-hydroxy-2-oxo-1-oxa-3,4-diazaspiro[5.5]undec-4-en-9-yl)propan-2-yl)-3-methyl-1H-pyrazole-5-carboxamide]",3880,1580,–,–
C[C@@H](CN1CCC2(CC1)OC(=O)NN=C2c1cc(C#N)ccc1Br)NC(=O)/C=C/C(=O)ON1C(=O)CCC1=O [Example 2-042],3020,383,–,–
C[C@@H](C[C@H]1CC[C@]2(CC1)OC(=O)NN=C2c1ccc(F)cc1I)NC(=O)C(=O)NC1CC1 [Example 177],10,< 10,–,–

SMILES,IC50 (full-length human PLD1; [1]) [nM],IC50 (full-length human PLD2; [2]) [nM],"IC50 (full-length human PLD1; column 1 of continuation tables 2-12 to 2-14, read-out: human PLD1 enzyme inhibitory activity IC50) [nM]","IC50 (full-length human PLD2; column 2 of continuation tables 2-12 to 2-14, read-out: human PLD2 enzyme inhibitory activity IC50) [nM]"
C[C@@H](C[C@H]1CC[C@]2(CC1)OC(=O)NN=C2c1ccccc1S(C)(=O)=O)NC(=O)c1cc(Cl)no1 [Example 78],350,252,–,–
C[C@@H](CN1CCC2(CC1)OC(=O)NN=C2c1cc(C#N)ccc1Br)NC(=O)C1COCCO1 (mixture of isomers) [Example 2-049],1740,1440,–,–
[2H]C([2H])([2H])NC(=O)C(=O)N[C@@H](C)C[C@]1(C#N)CC[C@@]2(CC1)OC(=O)NN=C2c1cc(F)c(F)cc1Br [Example 2-140],–,–,17,< 10
C[C@@H](C[C@H]1CC[C@]2(CC1)OC(=O)NN=C2c1ccccc1SC(F)(F)F)NC(=O)c1cnn(C)c1 [Example 2-020],21,16,–,–
CNC(=O)C(=O)N[C@@H](C)C[C@H]1CC[C@]2(CC1)OC(=O)NN=C2c1cc(C)ccc1C [Example 126],13,< 10,–,–
Cc1cc(C(=O)N[C@@H](C)C[C@H]2CC[C@]3(CC2)OC(=O)NN=C3c2cccc3c2OCC3)[nH]n1 [Example 107],85,139,–,–
C[C@@H](C[C@H]1CC[C@]2(CC1)OC(=O)NN=C2c1ccc(F)cc1Br)NC(=O)CCS(C)(=O)=O [Example 43],221,184,–,–
CNC(=O)C(=O)N[C@@H](C)[C@@H](C)N1CCC2(CC1)OC(=O)NN=C2c1ccc(F)cc1Br [Example 291],150,234,–,–
C[C@@H](C[C@H]1CC[C@]2(CC1)OC(=O)NN=C2c1ccc(OCC(C)(C)O)cc1Br)NC(=O)c1cc(Cl)no1 [Example 131],10,< 10,–,–
CNC(=O)C(=O)N[C@@H](C)C[C@H]1CC[C@]2(CC1)OC(=O)NN=C2c1cnc(Cl)cc1C [Example 158],27,15,–,–
C[C@@H](C[C@H]1CC[C@]2(CC1)OC(=O)NN=C2c1ccc(F)cc1Br)NC(=O)c1cc(Cl)no1 [Example 37],< 10,< 10,–,–
CSc1ccccc1C1=NNC(=O)O[C@]12CC[C@@H](C[C@H](C)NC(=O)c1cc(Cl)no1)CC2 [Example 79],< 10,< 10,–,–
CNC(=O)C(=O)N[C@@H](C)C[C@H]1CC[C@]2(CC1)OC(=O)NN=C2c1cccc(Br)c1 [Example 24],41,31,–,–
CNC(=O)C(=O)N[C@@H](C)CN1CCC2(CO1)OC(=O)NN=C2c1cc(C#N)ccc1Br (some centres unmarked) [Example 2-025],219,205,–,–
C[C@@H](C[C@H]1CC[C@]2(CC1)OC(=O)NN=C2c1ccc(S(C)(=O)=O)cc1Cl)NC(=O)c1cc2ccccc2o1 [Example 53],19,< 10,–,–
CNC(=O)C(=O)N[C@@H](C)C[C@]1(C#N)CC[C@@]2(CC1)OC(=O)NN=C2c1cc(OC(F)(F)F)ccc1Br [Example 2-080],< 10,< 10,–,–
CC(=O)N[C@@H](C)C[C@H]1CC[C@]2(CC1)OC(=O)NN=C2c1ccc(F)cc1Br [Example 11],228,394,–,–
Cc1cc(F)ccc1C1=NNC(=O)O[C@]12CC[C@@H](C[C@H](C)NC(=O)c1ccc(Cl)cc1F)CC2 [Example 88],56,65,–,–
CNC(=O)C(=O)N[C@@H](C)C[C@]1(C#N)CC[C@@]2(CC1)OC(=O)NN=C2c1cccc(C(F)(F)F)c1Br [Example 2-076],11,< 10,–,–
Cc1cc(C(=O)N[C@@H](C)C[C@H]2CC[C@]3(CC2)OC(=O)NN=C3c2cnc(N3CCC(F)(F)C3)cc2Cl)[nH]n1 [Example 224],13,< 10,–,–
CNC(=O)C(=O)NC[C@@H](C)N1CCC2(CC1)OC(=O)NN=C2c1ccc(C#N)cc1Br [Example 330],3150,26,–,–
C[C@@H](CN1CCC2(CC1)OC(=O)NN=C2c1cc(C#N)ccc1Br)NC(=O)C[C@@H](O)C(F)(F)F [Example 2-002],1250,1860,–,–
C[C@@H](C[C@H]1CC[C@]2(CC1)OC(=O)NN=C2c1ccc(S(C)(=O)=O)cc1Br)NC(=O)c1ccccc1 [Example 49],31,11,–,–
CC(C)=CC(=O)N[C@@H](C)CN1CCC2(CC1)OC(=O)NN=C2c1cc(C#N)ccc1Br [Example 2-022],738,388,–,–
CNC(=O)C(=O)N[C@@H](C)C[C@H]1CC[C@]2(CC1)OC(=O)NN=C2c1cccc2c1OC(F)(F)O2 [Example 118],50,73,–,–
CNC(=O)C(=O)N[C@@H](C)C[C@H]1CC[C@]2(CC1)OC(=O)NN=C2c1ccc(C#N)c(C)c1 [Example 205],35,102,–,–
